Source: patent publication US9552457B2, “Reprogramming effector protein interactions to correct epigenetic defects in cancer” (BRITISH COLUMBIA CANCER AGENCY BRANCH, priority 2012, dated 2017)
Where two headings read alike, the source gives them in different places.

How the values were obtained:
[1] = test system: SU-DHL-9 (MLL2 homozygous indel mutant) cell line; test: alamarBlue cell proliferation assay, SU-DHL-9 cell line; format: cell-based, human; conditions: for activity at 10 µM: Homo sapiens, read-out: % Cell Proliferation; for activity as worded in SAR analysis (selective toxicity against SU-DHL-9): in words, restates Tables 3 and 4
Method: Cell line DOHH2 was obtained from DSMZ. Pfeiffer was obtained from ATCC. SU-DHL-9 was obtained from Martin Dyer (University of Leicester, UK).
Compounds were initially solubilized in DMSO at a concentration of 10 mM. […] Ninety microliters of cells maintained at a concentration of 4×10^5 cells/mL were dispensed into wells of a MICROTEST™ 96-well Assay Plate, Optilux™ (BD). Ten microliters of the 100 μM compound solution were then added to the cells resulting in a final compound concentration of 10 μM. Each compound was tested in triplicate. […] Compounds were incubated with the cells in a 37° C. incubator with 5% CO2, humidified atmosphere for 48 hours before being subjected to the alamarBlue® cell proliferation assay (Life Technologies). Raw fluorescent units were corrected for background noise and normalized to the carrier-treated control.

[2] = test system: DoHH2 Cells (wildtype for EZH2, MEF2B and MLL2); test: Cell viability of lymphoma cell lines, DoHH-2; format: cell-based; parameters: Effect on Cell Viability (% survival) DoHH2 Cells: concentration or dose not given beside the values; conditions: Table 5
Method: (§1) Compound 50 was tested for its effect on the viability of three lymphoma cell lines in vitro using standard methods. The cell lines tested were: DoHH-2 (wildtype for EZH2, MEF2B and MLL2); WSU-DLCL2 (EZH2 mutation Y641F (wildtype for MEF2B and MLL2)) and DB (EZH2 mutation Y641N, the MEF2B mutation D83V and three mutations in MLL2 (two of which lead to a truncated protein after residue Q2736 and the third allele has a 1 base pair deletion at residue P480)).
(§2) Compound 51 (NSC2540) was tested for its effect on the viability of four lymphoma cell lines in vitro using standard methods. The cell lines tested were DoHH-2, WSU-DLCL2, DB and SU-DHL-9 (EZH2 wildtype, MEF2B wildtype, MLL2 indel).

[3] = test system: WSU-DLCL2 Cells (EZH2 mutation Y641F); test: Cell viability of lymphoma cell lines, WSU-DLCL2; format: cell-based, human; parameters: Effect on Cell Viability (% survival) WSU-DLCL2 Cells: concentration or dose not given beside the values; conditions: Table 5
Method: as §1, §2

[4] = Table 3, scaffold A, 10 μM, 48 hours, normalized to carrier-treated control, SU-DHL-9
[5] = Table 4, scaffold B, 10 μM, 48 hours, normalized to carrier-treated control, SU-DHL-9

Compound	Effect on Cell Viability (% survival) DoHH2 Cells [2] [%]	Effect on Cell Viability (% survival) WSU-DLCL2 Cells [3] [%]	further results
C=CS(=O)(=O)c1ccc2ccccc2c1 [Compound 6, 2-ethenylsulfonylnaphthalene]	–	–	activity at 10 µM [1, 4]: 69%; activity as worded in SAR analysis (selective toxicity against SU-DHL-9) [1]: only moderate activity
C=C(CNC(C)(C)C)C(=O)c1ccccc1 [Compound 8, 2-[(tert-butylamino)methyl]-1-phenylprop-2-en-1-one]	–	–	activity at 10 µM [1, 4]: 92%
O=C1c2ccccc2-c2c(NC(=O)C(Cl)Cl)cccc21 [Compound 9, 2,2-dichloro-N-(9-oxofluoren-4-yl)acetamide]	–	–	activity at 10 µM [1, 5]: 117%
C=C(CN1CCOCC1)C(=O)c1ccccc1 [Compound 11, 2-(morpholin-4-ylmethyl)-1-phenylprop-2-en-1-one]	–	–	activity at 10 µM [1, 4]: 26%
CC(=O)C(=O)c1ccccc1 [Compound 12]	–	–	activity at 10 µM ([1]; 48 h): 105%
C=CC(=O)c1ccccc1 [Compound 13]	–	–	activity at 10 µM [1, 4]: 137%
C=C(CN(C)C)C(=O)c1ccc(C(=O)C(=C)CN(C)C)cc1 [Compound 14]	–	–	activity at 10 µM [1, 4]: 93%; activity as worded in SAR analysis (selective toxicity against SU-DHL-9) [1]: lacks activity
C=C(CN(C)C)C(=O)c1ccc(C)cc1C [Compound 15]	–	–	activity at 10 µM [1, 4]: 61%
C=C(CN(C)C)C(=O)c1ccccc1C [Compound 16]	–	–	activity at 10 µM [1, 4]: 107%; activity as worded in SAR analysis (selective toxicity against SU-DHL-9) [1]: inactive or minimally active
COc1ccccc1C(=O)C(=O)CN(C)C [Compound 17]	–	–	activity at 10 µM [1, 4]: 89%; activity as worded in SAR analysis (selective toxicity against SU-DHL-9) [1]: inactive or minimally active
C=C(CN(C)C)C(=O)c1ccccc1 [Compound 19]	–	–	activity at 10 µM [1, 4]: 77%; activity as worded in SAR analysis (selective toxicity against SU-DHL-9) [1]: inactive or minimally active
C=C(CN(C)C)C(=O)c1ccc(OC)cc1 [Compound 20]	–	–	activity at 10 µM [1, 4]: 83%
C=CCCC(=C)c1ccccc1 [Compound 21]	–	–	activity at 10 µM [1, 4]: 105%
O=C1c2ccccc2-c2cccc(NC(=O)C(Cl)Cl)c21 [Compound 22]	–	–	activity at 10 µM [1, 5]: 86%; activity as worded in SAR analysis (selective toxicity against SU-DHL-9) [1]: partially active
CC(=O)NC(CC(=O)Nc1cccc2c1C(=O)c1ccccc1-2)C(C)=O (centres unmarked) [Compound 23]	–	–	activity at 10 µM [1, 5]: 114%; activity as worded in SAR analysis (selective toxicity against SU-DHL-9) [1]: inactive
CC(=O)Nc1cccc2c1C(=O)c1ccccc1C2=O [Compound 24]	–	–	activity at 10 µM [1, 5]: 107%; activity as worded in SAR analysis (selective toxicity against SU-DHL-9) [1]: inactive
OC(CBr)c1cc(-c2ccccc2)nc2ccccc12 (centres unmarked) [Compound 25]	100	60	–
CC(O)c1cc(-c2ccccc2)nc2ccccc12 (centres unmarked) [Compound 26]	100	90	–
O=C(CBr)c1cc(-c2ccc(Cl)cc2)nc2ccccc12 [Compound 27]	90	40	–
CC(=O)c1cc(-c2ccc(Cl)cc2)nc2ccccc12 [Compound 28]	100	100	–
CC(O)c1cc(-c2ccc(Cl)cc2)nc2ccccc12 (centres unmarked) [Compound 29]	100	80	–

Compound	Effect on Cell Viability (% survival) DoHH2 Cells [2] [%]	Effect on Cell Viability (% survival) WSU-DLCL2 Cells [3] [%]	further results
O=C(CBr)c1cc(-c2ccc(Cl)cc2)nc2cc(Cl)ccc12 [Compound 30]	60	40	–
OC(CBr)c1cc(-c2ccc(Cl)cc2)nc2cc(Cl)ccc12 (centres unmarked) [Compound 31]	100	100	–
CC(=O)c1cc(-c2ccc(Cl)c(Cl)c2)nc2c(Cl)cc(Cl)cc12 [Compound 32]	100	90	–
O=C(c1cc(-c2ccc(Cl)c(Cl)c2)nc2c(Cl)cc(Cl)cc12)C1NN1 [Compound 33]	100	100	–
OC(CBr)c1cc(-c2ccccc2)nc2c(Cl)cc(Cl)cc12 (centres unmarked) [Compound 34]	100	90	–
O=C(CBr)c1cc(-c2ccc(Cl)cc2)nc2c(-c3ccccc3)cccc12 [Compound 35]	20	17	–
OC(CBr)c1cc(-c2ccc(Cl)cc2)nc2c(-c3ccccc3)cccc12 (centres unmarked) [Compound 36]	100	90	–
O=C(Cl)c1cc(-c2ccc(Cl)cc2)nc2c(-c3ccccc3)cccc12 [Compound 37]	100	80	–
OC(c1cc(-c2ccc(Cl)cc2)nc2cc(Cl)ccc12)N1CCCCC1 (centres unmarked) [Compound 38]	100	80	–
OC(c1cc(-c2ccc(Cl)cc2Cl)nc2cc(Cl)ccc12)C1CCCCN1 (centres unmarked) [Compound 39]	60	20	–
OC(c1cc(-c2ccc(Cl)cc2)nc2ccccc12)C1CCCCN1 (centres unmarked) [Compound 40]	100	50	–
OC(c1cc(-c2cccc(Cl)c2)nc2ccccc12)C1CCCCN1 (centres unmarked) [Compound 41]	17	10	–
OC(c1cc(-c2ccccc2)nc2c(Cl)cc(Cl)cc12)C1CCCCN1 (centres unmarked) [Compound 42]	30	10	–
OC(c1cc(-c2ccccc2)nc2cc(Cl)ccc12)C1CCCCN1 (centres unmarked) [Compound 43]	40	10	–
OC(c1cc(-c2ccccc2)nc2c1ccc1ccccc12)C1CCCCN1 (centres unmarked) [Compound 44]	10	10	–
CCN(CC)CC(O)c1cc(-c2ccc(Cl)cc2)nc2cc(Cl)ccc12 (centres unmarked) [Compound 45]	100	80	–
CCCN(CCC)CC(O)c1cc(-c2ccc(Cl)cc2)nc2c(C)c(Cl)ccc12 (centres unmarked) [Compound 46]	100	90	–
Cc1c(Cl)ccc2c(C(O)CN(C)C)cc(-c3ccc(Cl)cc3)nc12 (centres unmarked) [Compound 47]	100	100	–
Cc1c(Cl)ccc2c(C(=O)NN)cc(-c3ccc(Cl)cc3)nc12 [Compound 48]	90	40	–
Cc1c(Cl)ccc2c(C(=O)CNCc3ccccc3)cc(-c3ccc(Cl)cc3)nc12 [Compound 49]	70	50	–
